The record followed here is article PMC12150283, “Synthesis of new Ag(I) and Cd(II) hydrozanomide-based complexes with antibacterial and anticancer properties” (RSC Advances, 2025).

As usually defined, the IC50 is the concentration needed to halve the response being measured. Higher therefore signals weaker potency in that assay.

The subject of one data set is S. aureus ATCC 6538. The data set is described as follows: Diffusion-well method, inhibition zones. Type of data set: cell-based, Staphylococcus aureus. The conditions noted are these: 500 µg/mL, wells 10 mm. The method in brief:
(§1)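 Overnight (24 h) cultures at 1–2 × 10^8 CFU mL^−1 were spread on Mueller–Hinton agar, and 10 mm wells were filled with compound at 10–500 μg mL^−1 in DMSO. Plates were incubated 18 h at 30 °C for B. subtilis or 37 °C for the other strains; inhibition zone diameters were measured in mm.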

The test system of the next data set is S. aureus ATCC 25923. As to the kind of experiment: Diffusion-well method, inhibition zones. It counts as cell-based, Staphylococcus aureus. The settings on record: 500 µg/mL, wells 10 mm. In outline:
as §1

Data set [1] can be described thus: Time-dependent UV-vis solution stability in DMSO. The settings on record: 0 min to 48 h, room temperature. It counts as physicochemical. An excerpt:
The stability of metal complexes is a crucial property that provides insight into their interactions with biological molecules, as it directly impacts their reactivity, bioavailability, and effectiveness in therapeutic applications. Additionally, the solubility of these complexes in dimethyl sulfoxide (DMSO) is of considerable importance, as solubility data are essential for optimizing storage conditions and ensuring compatibility with biological assays.[39] DMSO, a widely used solvent in drug discovery, serves as a medium that supports the stability and bioavailability of complexes under assay conditions, which is critical for maintaining the integrity of analytical protocols and enabling accurate assessments of biological activity. For the obtained complexes, the time-dependent UV-vis investigations in DMSO (Fig. 5 and S9 ^†) were carried out from 0 min to 48 h (0 min, 30 min, 1 h, 2 h, 3 h, 24 h, 48 h).
The sample solutions (50 μL (1.0 × 10^−3 M)) of the complexes were prepared in DMSO (Sigma Aldrich, ≥99.9%). The absorption spectra of the complexes were measured with increasing time (0 min, 30 min, 60 min, 2 h, 3 h, 24 h, 48 h) at room temperature. All measurements were performed on the Shimadzu UV-2401PC.

The test system of a further data set is glioblastoma U87 cells. The data set is described as follows: MTT cell viability assay. It counts as cell-based, human. The conditions noted are these: 48 hours of incubation. In outline: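 Cells seeded at 2 × 10^4/well, left 24 h, then treated with compound over 1–50 μM for 48 h. Viability was read by MTT colorimetry in triplicate, and IC50 was taken as the concentration lowering viability by 50%.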
(In general: Tetrazolium assays rely on reduction of a dye to a coloured formazan, in cell work by metabolically active cells.)

Data set [2] deals with L. monocytogenes ATCC 19115. As to the kind of experiment: Diffusion-well method, inhibition zones. Type of data set: cell-based, Listeria monocytogenes. The conditions noted are these: 500 µg/mL, wells 10 mm. In outline:
as §1

With `NC(=NN=Cc1ccccc1)c1cncc(Cl)n1.O.O=[N+]([O-])[O-].[Ag+]` [Complex 1, AgL1NO3 × H2O], the Inhibition zone with S. aureus ATCC 6538 amounted to 16 mm; in the data set with S. aureus ATCC 25923 it was 20 mm; in data set [2], 19 mm. The hypochromic effect in data set [1] is 0.84%. Half-maximal inhibition in the data set with glioblastoma U87 cells (IC50) required 8.15 ± 2.67 µM.
